Values of other authors in patent publication US20110105488A1, “SUBSTITUTED PYRROLIDINE AND PIPERIDINE COMPOUNDS, DERIVATIVES THEREOF, AND METHODS FOR TREATING PAIN” (Chlorion Pharma, Inc., priority 2008, published 2011).

How the values were obtained:
patients = conditions: human, in vivo
[1] = tested on: patients with post-herpetic neuralgia
clinical trial subjects = conditions: review of multiple clinical studies

SMILES: NC(=O)N1c2ccccc2C=Cc2ccccc21 [carbamazepine]
- adverse effects evoked (patients): various sensory deficits
- patients with rash and leucopenia (patients): ~10%

SMILES: NCC1(CC(=O)O)CCCCC1 [gabapentin]
- mean endpoint pain score ([1]; 8-week trials, mean baseline 6.3): 4.2
- decrease in pain ([1]; two placebo-controlled, parallel-group trials of 8-weeks duration): ~33%

SMILES: CC(C)C[C@H](CN)CC(=O)O [pregabalin]
- adverse effects evoked (clinical trial subjects): significant somnolence, vertigo, and headache
